Assay results taken from ChEMBL document CHEMBL1201862, “PubChem BioAssay data set” (2004).
Activity calls are given as the source filed them.

Legend:
[1] = target: T1, DNA repair and recombination protein RAD54-like (Homo sapiens, UniProt Q92698); assay: RAD54 Holliday junction migration blockers – biochemical, fluorescence, cherry-picked samples, dose series, confirmation (AID 651657); format: functional
T1 sequence (Q92698 whole entry): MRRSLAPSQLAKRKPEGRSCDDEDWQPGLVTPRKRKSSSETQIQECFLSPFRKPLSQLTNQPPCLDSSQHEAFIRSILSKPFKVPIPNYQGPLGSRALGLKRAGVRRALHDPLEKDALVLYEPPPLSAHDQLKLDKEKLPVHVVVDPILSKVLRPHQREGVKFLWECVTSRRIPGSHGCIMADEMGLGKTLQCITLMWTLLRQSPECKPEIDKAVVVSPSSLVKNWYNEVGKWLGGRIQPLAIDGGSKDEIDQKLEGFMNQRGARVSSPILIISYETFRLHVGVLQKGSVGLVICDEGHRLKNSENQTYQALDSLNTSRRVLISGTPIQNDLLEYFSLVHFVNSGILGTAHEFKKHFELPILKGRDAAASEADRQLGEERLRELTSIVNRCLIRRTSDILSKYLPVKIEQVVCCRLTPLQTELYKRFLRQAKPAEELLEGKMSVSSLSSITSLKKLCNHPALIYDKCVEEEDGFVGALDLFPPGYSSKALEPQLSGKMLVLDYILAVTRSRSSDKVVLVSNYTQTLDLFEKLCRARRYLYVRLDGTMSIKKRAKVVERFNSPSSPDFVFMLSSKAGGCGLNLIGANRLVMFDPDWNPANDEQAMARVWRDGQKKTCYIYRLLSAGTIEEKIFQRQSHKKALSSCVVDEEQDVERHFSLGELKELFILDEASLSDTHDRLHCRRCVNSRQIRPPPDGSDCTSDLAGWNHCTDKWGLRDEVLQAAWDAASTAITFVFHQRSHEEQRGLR

[2] = target: T2, Tyrosine-protein phosphatase non-receptor type 11 (Homo sapiens, UniProt Q06124); assay: PTPN11 enzyme inhibitors – biochemical, selectivity assay for STEP inhibitor project, dose response (AID 602367); format: functional; settings: read-out: IC50_Mean
T2 sequence (Q06124 whole entry): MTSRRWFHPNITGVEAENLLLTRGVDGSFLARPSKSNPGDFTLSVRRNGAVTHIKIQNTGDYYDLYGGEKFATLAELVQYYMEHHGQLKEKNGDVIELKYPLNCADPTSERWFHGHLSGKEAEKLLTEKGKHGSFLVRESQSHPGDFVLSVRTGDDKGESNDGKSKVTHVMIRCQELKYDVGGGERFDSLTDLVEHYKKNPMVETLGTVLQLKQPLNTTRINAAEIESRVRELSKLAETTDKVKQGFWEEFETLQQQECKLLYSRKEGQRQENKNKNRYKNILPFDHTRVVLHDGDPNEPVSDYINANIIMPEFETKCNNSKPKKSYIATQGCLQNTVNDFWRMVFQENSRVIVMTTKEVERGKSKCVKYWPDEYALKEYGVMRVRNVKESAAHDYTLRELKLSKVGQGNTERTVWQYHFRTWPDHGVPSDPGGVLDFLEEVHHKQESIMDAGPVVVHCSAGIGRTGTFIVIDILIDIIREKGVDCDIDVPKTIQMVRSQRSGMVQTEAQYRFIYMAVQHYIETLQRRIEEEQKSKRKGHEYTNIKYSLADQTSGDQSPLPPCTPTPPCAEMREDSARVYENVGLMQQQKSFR

[3] = target: Dual specificity protein phosphatase 3 (Homo sapiens, UniProt P51452); assay: VHR phosphatase inhibition, dose response, selectivity assay for STEP inhibitor project, biochemical (AID 602374); format: functional; settings: read-out: IC50_Mean
[4] = target: T3, Tyrosine-protein phosphatase non-receptor type 5 (Homo sapiens, UniProt P54829); assay: PTPN5 enzyme inhibition – biochemical, fluorescence intensity, uHTS hits, confirmation (AID 602372); format: functional; settings: read-out: IC50_Mean
T3 sequence (P54829 whole entry): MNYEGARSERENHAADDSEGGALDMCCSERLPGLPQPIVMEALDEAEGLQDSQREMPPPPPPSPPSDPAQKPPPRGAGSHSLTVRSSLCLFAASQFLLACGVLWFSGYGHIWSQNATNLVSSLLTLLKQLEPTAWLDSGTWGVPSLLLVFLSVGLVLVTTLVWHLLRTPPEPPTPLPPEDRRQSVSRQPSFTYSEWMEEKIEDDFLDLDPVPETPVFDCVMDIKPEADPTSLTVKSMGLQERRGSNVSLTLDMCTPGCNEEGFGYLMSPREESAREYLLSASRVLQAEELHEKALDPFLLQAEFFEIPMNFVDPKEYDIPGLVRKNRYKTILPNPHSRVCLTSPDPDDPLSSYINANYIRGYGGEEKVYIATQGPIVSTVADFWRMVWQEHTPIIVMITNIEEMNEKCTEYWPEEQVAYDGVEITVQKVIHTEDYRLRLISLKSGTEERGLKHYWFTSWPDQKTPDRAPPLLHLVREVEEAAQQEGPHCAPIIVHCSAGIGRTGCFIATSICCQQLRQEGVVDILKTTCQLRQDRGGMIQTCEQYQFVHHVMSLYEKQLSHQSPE

[5] = target: T4, Ubiquitin-conjugating enzyme E2 N (Homo sapiens, UniProt P61088); format: functional;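 note: Dose-response confirmation in a TR-FRET assay detecting UBC13-driven polyubiquitin chain formation, inhibition measured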
T4 sequence (P61088 whole entry): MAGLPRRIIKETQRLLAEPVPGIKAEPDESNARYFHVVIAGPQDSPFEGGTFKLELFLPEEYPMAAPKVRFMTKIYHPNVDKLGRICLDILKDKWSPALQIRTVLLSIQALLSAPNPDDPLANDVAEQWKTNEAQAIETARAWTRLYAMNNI

[6] = target: T5, DNA repair protein RAD52 homolog (Homo sapiens, UniProt P43351); format: functional, biochemical
T5 sequence (P43351 whole entry): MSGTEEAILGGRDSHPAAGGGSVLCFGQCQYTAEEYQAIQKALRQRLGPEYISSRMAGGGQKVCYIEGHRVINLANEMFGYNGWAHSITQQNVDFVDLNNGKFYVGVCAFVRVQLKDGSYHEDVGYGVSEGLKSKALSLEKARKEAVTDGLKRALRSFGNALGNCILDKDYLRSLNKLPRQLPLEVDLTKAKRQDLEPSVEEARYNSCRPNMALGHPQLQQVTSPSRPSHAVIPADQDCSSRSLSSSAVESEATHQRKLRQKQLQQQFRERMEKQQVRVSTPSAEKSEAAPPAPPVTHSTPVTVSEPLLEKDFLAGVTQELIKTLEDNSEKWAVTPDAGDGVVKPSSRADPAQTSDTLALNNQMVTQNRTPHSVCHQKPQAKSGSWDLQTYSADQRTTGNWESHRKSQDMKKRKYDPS

[7] = bead-based luminescence quenchers, dual-tagged ARNT – biochemical, AlphaScreen, cherry-pick, artefact control for ARNT-TACC3 interaction inhibitor project, dose response (AID 651705); format: functional;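 note: AlphaScreen bead proximity signal that flags compounds interfering with the detection technology; potency reflects signal decrease which marks the compound as an assay artifact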
[8] = target: T6, Sentrin-specific protease 8 (Homo sapiens, UniProt Q96LD8); format: functional
T6 sequence (Q96LD8 whole entry): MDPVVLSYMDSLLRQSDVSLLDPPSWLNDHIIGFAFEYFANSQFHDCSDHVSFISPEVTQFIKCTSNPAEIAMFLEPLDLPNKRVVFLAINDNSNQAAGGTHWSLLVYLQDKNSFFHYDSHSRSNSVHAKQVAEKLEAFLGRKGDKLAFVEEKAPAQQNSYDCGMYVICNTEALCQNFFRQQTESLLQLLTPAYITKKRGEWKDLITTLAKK

[9] = target: T6, Sentrin-specific protease 8; format: functional; remark: listed apart in the source
[10] = target: Glucose-6-phosphate 1-dehydrogenase (Homo sapiens, UniProt P11413); assay: inhibition of Homo sapiens G6PD, dose series – biochemical, fluorescence, selectivity assay for P. falciparum G6PD inhibitor project, dose response (AID 504792); format: functional
Genome polyprotein = Genome polyprotein (dengue virus type 2, UniProt P29990); assay: flavivirus cap methylation enzyme inhibition – biochemical, confirmation dose response, primary screen (AID 588689); format: functional
[11] = target: T7, Hepatocyte nuclear factor 4-alpha (Homo sapiens, UniProt P41235); format: functional, cell-based;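 note: biochemical luminescence-based dose-response counterscreen measuring inhibition of HNF4 dimerization, run alongside a screen for blockers of ABHD5–perilipin-5 interaction; split luciferase complementation of HNF4 fusion proteins in cell lysate measuring dimerization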
T7 sequence (P41235 whole entry): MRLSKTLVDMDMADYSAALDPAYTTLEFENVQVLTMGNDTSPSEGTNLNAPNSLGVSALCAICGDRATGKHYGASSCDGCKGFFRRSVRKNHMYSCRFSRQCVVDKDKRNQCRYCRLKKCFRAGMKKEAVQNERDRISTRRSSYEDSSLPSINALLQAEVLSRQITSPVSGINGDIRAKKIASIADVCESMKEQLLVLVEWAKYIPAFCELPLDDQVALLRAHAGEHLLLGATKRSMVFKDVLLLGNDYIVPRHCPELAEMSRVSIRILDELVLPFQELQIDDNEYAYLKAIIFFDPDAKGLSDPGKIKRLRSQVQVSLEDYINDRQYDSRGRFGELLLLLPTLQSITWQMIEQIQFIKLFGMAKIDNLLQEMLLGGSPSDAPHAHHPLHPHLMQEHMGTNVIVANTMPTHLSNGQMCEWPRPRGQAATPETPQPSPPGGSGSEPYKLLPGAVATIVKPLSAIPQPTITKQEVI

cells [12] = format: functional, cell-based
[13] = Trypanosoma cruzi growth suppression in host cells – NIH3T3 host cells, beta-gal luminescence, confirmation (AID 2044); format: functional, cell-based;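 note: intracellular parasites grown in NIH/3T3 mouse fibroblasts as host cells; luminescent beta-galactosidase reporter signal from transgenic T. cruzi replicating inside host cells; inhibitors lower the luminescence signal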
H9c2 = assay: cells; format: functional, cell-based; settings: Rattus norvegicus, H9c2, Myocardium;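 note: confirmatory concentration-response retest of ultra-high-throughput screening hits for modulation of myocardial damage; cell death induced by hydrogen peroxide oxidative stress; compound pretreatment for 60 min then peroxide exposure for 2 h; potency is for protecting the cells against peroxide damage rather than for killing them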
cells [14] = format: functional, cell-based; remark: listed apart in the source
[15] = NIH3T3 cell viability loss – ATP luminescence, mouse fibroblasts, counter-screen, dose response (AID 2010); format: functional, cell-based;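 note: cells exposed to compound for about 90 hours before reading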

Sequence of Dual specificity protein phosphatase 3 (P51452 whole entry): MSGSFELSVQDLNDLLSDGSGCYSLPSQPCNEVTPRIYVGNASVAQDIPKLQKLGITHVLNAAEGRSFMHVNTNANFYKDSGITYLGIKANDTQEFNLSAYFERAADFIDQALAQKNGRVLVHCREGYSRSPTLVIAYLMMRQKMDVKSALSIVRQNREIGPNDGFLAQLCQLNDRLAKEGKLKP
Sequence of Genome polyprotein (P29990 2492-3391 limits assumed): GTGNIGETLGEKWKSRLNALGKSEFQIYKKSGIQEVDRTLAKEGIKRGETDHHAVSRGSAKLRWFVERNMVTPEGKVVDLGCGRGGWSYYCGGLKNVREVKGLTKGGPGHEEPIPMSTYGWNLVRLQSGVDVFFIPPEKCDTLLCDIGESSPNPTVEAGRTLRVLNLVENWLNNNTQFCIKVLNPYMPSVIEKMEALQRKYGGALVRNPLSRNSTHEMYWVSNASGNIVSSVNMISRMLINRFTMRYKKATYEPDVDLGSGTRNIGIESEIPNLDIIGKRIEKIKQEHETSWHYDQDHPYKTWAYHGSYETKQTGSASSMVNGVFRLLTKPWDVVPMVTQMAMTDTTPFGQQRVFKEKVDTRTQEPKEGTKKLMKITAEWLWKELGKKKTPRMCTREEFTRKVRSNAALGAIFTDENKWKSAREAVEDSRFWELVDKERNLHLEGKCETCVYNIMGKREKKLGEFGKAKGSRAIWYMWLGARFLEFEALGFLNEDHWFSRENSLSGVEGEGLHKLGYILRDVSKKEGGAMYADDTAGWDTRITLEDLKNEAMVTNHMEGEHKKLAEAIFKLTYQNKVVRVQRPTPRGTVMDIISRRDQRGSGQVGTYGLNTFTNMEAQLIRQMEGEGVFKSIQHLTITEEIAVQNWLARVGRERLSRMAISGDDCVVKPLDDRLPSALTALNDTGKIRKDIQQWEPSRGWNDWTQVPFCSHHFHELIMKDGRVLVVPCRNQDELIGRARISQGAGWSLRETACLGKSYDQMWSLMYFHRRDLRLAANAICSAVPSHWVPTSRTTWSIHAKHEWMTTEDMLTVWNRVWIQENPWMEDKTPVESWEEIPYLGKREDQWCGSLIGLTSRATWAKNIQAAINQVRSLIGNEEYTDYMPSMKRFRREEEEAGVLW
Sequence of Glucose-6-phosphate 1-dehydrogenase (P11413 whole entry): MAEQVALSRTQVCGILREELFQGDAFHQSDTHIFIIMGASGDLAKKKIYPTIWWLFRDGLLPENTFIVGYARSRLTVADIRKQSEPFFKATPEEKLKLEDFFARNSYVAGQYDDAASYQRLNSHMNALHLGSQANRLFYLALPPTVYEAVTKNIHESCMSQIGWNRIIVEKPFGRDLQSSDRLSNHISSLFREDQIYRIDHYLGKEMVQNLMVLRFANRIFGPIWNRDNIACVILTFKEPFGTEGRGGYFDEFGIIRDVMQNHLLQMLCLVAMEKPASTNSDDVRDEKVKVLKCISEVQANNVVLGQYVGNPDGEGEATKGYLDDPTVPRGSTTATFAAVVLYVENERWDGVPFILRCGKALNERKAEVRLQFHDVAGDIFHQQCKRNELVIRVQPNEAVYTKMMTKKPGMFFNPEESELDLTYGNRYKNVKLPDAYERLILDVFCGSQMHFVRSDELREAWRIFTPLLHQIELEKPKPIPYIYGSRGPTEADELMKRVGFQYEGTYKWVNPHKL

CCCCN(CC)CCCN=C(S)Nc1ccc2nc(N3CCN(CC)CC3)cc(C)c2c1
AC50 [1]: 25.7 µM (active)

O=C(C1=C(O)C(=O)N(CCCO)C1c1ccc(Br)cc1)c1ccc(Br)cc1 (centres undefined)
IC50 [2]: 58.9 µM (inactive)
IC50 [3]: 73.4 µM (inactive)
IC50 [4]: 36.2 µM (inactive)

CCOC(=O)c1c(NC(=O)c2ccc(S(=O)(=O)N3CCOCC3)cc2)sc2c1CCN(C(C)C)C2
AC50 [1]: 8.89 µM (active)

CCN(CC)Cc1cc2[nH]c3c4ccc(Cl)cc4ncc3c2cc1OC
IC50 [5]: > 20 µM (inactive)
AC50 [1]: 14.6 µM (active)
AC50 [6]: 3.1 µM (active)

OCCN1CCN(C(=S)c2ccc(Cl)c(Cl)c2)CC1
IC50 [2]: 1.99 µM (active)
AC50 [7]: 132 µM (active)
IC50 [8]: 10.8 µM (active)
IC50 [3]: 0.339 µM (active)
IC50 [4]: 8.95 µM (active)
IC50 [9]: 18.4 µM (active)
IC50 [10]: > 80 µM (inactive)

O=C1NC(=S)NC(=O)C12C(c1ccccc1)NC(=S)NC2c1ccccc1 (centres undefined)
IC50 (Genome polyprotein): 69.4 µM (active)
IC50 [11]: 5.81 µM (active)

CC(C)[C@H](NC(=O)c1ccccc1Cl)C(=O)Nc1nc(-c2ccccn2)cs1
EC50 (cells [12]): 24 µM (active)
EC50 [13]: 2.23 µM (active)
AC50 [7]: 73.8 µM (active)
IC50 (H9c2): 8.83 µM (active)
EC50 (cells [14]): > 350 µM (not active)
EC50 [15]: 11.7 µM (active)

COc1ccc(C(C(=O)NC2CCCCC2)n2c(=O)c(-c3ccco3)nc3ccccc32)cc1 (centres undefined)
IC50 [11]: 1.75 µM (active)
